For test [1], the target named is Recombinant RIPK2 protein (Homo sapiens, UniProt O43353). Briefly: Receptor Interacting Protein Kinase 2 (RIPK2) enzyme assay (ADP-Glo). The settings on record: for inhibition at 0.5 µM: Conc. 500 nM. Format: biochemical. How it is done: Receptor Interacting Protein Kinase 2 (RIPK2) Enzyme Assay
Recombinant RIPK2 protein (20 ng per reaction) is diluted in the reaction buffer consisting of 40 mM Tris (pH 7.5); 20 mM MgCl2; 0.1 mg/ml BSA; 50 μM DTT. Diluted protein is added to low volume white 384 well plates (2 μL/well). Inhibitors are diluted in reaction buffer (final 25% DMSO), 1 μL is added to each well and incubated 5 min at room temperature. Reactions are initiated by the addition of 2 μL of 100 μM ATP and 1 mg/ml RS repeat peptide (SignalChem) in the reaction buffer. Plates are sealed with plastic coverslips and incubated at room temperature for 2 h. Reactions are stopped by the addition of 5 μL of ADP-Glo reagent (Promega) and ADP generation reaction is performed for 40 min at room temperature. Luminescence signal is generated by the addition of 10 μL of Kinase detection reagent (Promega) for 30 min at room temperature Luminescence signals are determined using appropriate luminescence plate-reader (typical integration time 0.3-1 sec). To calculate percent inhibition, average background signal is subtracted from test well and maximal signal wells. Inhibition, %=(1−(test signal/maximal signal))*100. The percent inhibition at a specified concentration is determined or IC50 values are calculated based on a dose range of inhibitor concentrations using non-linear regression in GraphPad Prism software.
(In ADP-Glo the light output rises with the ADP produced.)

In test [2] the target is T1, human ALK2 (Homo sapiens, UniProt Q04771).
T1 sequence (Q04771 21-509): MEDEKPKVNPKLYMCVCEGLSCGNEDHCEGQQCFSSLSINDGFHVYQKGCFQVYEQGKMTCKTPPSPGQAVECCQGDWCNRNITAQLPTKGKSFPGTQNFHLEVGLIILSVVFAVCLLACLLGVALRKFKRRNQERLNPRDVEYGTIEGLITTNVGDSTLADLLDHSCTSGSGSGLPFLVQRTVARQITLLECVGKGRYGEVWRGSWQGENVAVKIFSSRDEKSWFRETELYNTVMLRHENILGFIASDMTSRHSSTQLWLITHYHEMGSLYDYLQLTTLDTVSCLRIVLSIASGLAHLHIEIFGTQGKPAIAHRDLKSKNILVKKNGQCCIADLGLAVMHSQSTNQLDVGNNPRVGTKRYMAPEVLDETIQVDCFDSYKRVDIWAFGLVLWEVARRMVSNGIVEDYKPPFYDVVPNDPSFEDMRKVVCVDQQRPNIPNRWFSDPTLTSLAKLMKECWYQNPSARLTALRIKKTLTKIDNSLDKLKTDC
Description: Activin-Like Kinase 2 (ALK2) enzyme assay. Format: biochemical. How it is done: Activin-Like Kinase 2 (ALK2) Enzyme Assay
Enzyme inhibitory activity was evaluated in a standard kinase enzyme assay by incubating human ALK2 with the protein substrate casein (1 mg/mL) and γ-^33ATP (10 μM) in the presence of various concentrations of test compounds (10 nM-100 μM). After 30 min the amount of ^33P-casein was determined.

The test system of test [3] is NOD2 cellular signaling in HEK-Blue cells expressing human NOD2. Description: NOD2 cell signaling assay (HEK-Blue, NFkB-SEAP reporter, L18-MDP stimulated). The test is classed as cell-based. To be noted: read-out: IC50 (nM) HEKBlue RIPK2. The protocol:
NOD2 Cell Signaling Assay.
HEK-Blue cells expressing human NOD2 and NFkB-SAEP reporter (Invivogen) are seeded into 96 well clear plates at 7.5×10^3 cells per well in 100 μL of DMEM media supplemented with 10% FBS and 1% antibiotic-antimycotic mix. Cells are allowed to attach for 48 h in 5% CO2 tissue culture incubator at 37° C. On the morning of the experiment, media in the wells is replaced with 100 pt of HEK-Blue detection media (Invivogen). Cells are treated with the inhibitors, diluted in DMSO (0.5 μL per well) for 15 min in 5% CO2 tissue culture incubator at 37° C. After that, cells are stimulated by the addition of 1 ng/well L18-MDP (Invivogen). Cells are incubated in 5% CO2 tissue culture incubator at 37° C. for 8 h and absorbance, corresponding to the SEAP in the media, is determined in Wallac3V plate reader (Perkin Elmer). Inhibition, %=(1−((sample signal-unstimulated and DMSO treated cells)/(L18-MDP stimulated and DMSO treated cells−unstimulated and DMSO treated cells)))*100. IC50 values are calculated based on a dose range of inhibitor concentrations using non-linear regression in GraphPad Prism software.

Usually inhibition stands for the drop in the measured response relative to a control, in per cent. A word on the IC50: it is the concentration at which inhibition is half-maximal.

Recombinant RIPK2 protein, sequence (O43353 whole entry, species assumed): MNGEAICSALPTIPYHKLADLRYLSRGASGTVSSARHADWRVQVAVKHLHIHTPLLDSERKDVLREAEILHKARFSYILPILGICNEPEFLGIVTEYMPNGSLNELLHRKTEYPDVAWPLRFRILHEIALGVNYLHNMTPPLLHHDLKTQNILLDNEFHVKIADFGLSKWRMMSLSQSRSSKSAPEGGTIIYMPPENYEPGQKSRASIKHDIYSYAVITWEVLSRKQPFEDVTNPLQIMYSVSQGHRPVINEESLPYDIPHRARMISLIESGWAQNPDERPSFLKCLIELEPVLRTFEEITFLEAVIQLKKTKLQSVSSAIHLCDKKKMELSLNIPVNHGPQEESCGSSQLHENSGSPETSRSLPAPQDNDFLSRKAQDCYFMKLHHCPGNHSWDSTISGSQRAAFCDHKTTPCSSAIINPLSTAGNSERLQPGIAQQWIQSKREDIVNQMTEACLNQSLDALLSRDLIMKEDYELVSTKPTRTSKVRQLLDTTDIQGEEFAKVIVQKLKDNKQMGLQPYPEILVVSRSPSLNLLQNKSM

Turning to `CCCS(=O)(=O)Nc1ccc(-c2cc(-c3ccc(N4CCNCC4)cc3)cnc2C)cc1OC` [CSLP1, N-(2-methoxy-4-(2-methyl-5-(4-(piperazin-1-yl)phenyl)pyridin-3-yl)phenyl)propane-1-sulfonamide], the inhibition at 0.5 µM in test [1] was below 0%. The IC50 in test [2] was above 100000 nM; in test [3] it was above 1000 nM.
For `COc1cc(NS(C)(=O)=O)cc(-c2cc(-c3ccc(N4CCNCC4)cc3)cnc2C)c1` [CSLP2, N-(3-Methoxy-5-(2-methyl-5-(4-(piperazin-1-yl)phenyl)pyridin-3-yl)phenyl)methanesulfonamide], the half-inhibitory concentration (IC50) in test [1] was above 100 nM; in test [2], above 10 nM; in test [3], above 1000 nM. For the same compound, the inhibition at 0.25 µM in test [1] (Conc. 250 nM) worked out at 39%.
Take `COc1cc(NS(C)(=O)=O)cc(-c2cc(-c3ccc(N4CCNCC4)cc3)cnc2N)c1` [CSLP3]: the values for the IC50 in test [1], in test [2] and in test [3] were above 10 nM, above 1 nM and above 100 nM, respectively.
`CCCS(=O)(=O)Nc1cc(OC)cc(-c2cc(-c3ccc(N4CCNCC4)cc3)cnc2N)c1` [CSLP6]: the IC50 in test [1] was above 10 nM; in test [2] it was above 1 nM; in test [3] it was above 100 nM.
For `CCS(=O)(=O)Nc1cc(OC)cc(-c2cc(-c3ccc(N4CCNCC4)cc3)cnc2N)c1` [CSLP7], the IC50 in test [1] is above 10 nM; in test [3] it was above 100 nM.
For `COc1cc(NS(=O)(=O)C(C)C)cc(-c2cc(-c3ccc(N4CCNCC4)cc3)cnc2N)c1` [CSLP8], the IC50 in test [1] was above 10 nM; in test [2] it was above 1 nM; in test [3], above 100 nM.
Regarding `COc1cc(NS(=O)(=O)C2CC2)cc(-c2cc(-c3ccc(N4CCNCC4)cc3)cnc2C)c1` [CSLP9, N-(3-Methoxy-5-(2-methyl-5-(4-(piperazin-1-yl)phenyl)pyridin-3-yl)phenyl)cyclopropanesulfonamide], the inhibition at 0.5 µM in test [1] worked out at 76%. In addition, the IC50 in test [3] was above 1000 nM.
In the case of `CCCS(=O)(=O)Nc1cc(OC)cc(-c2cc(-c3ccc(N4CCNCC4)cc3)cnc2C)c1` [CSLP10, N-(3-Methoxy-5-(2-methyl-5-(4-(piperazin-1-yl)phenyl)pyridin-3-yl)phenyl)propane-1-sulfonamide], the IC50 in test [1] was above 100 nM; in test [2], above 10 nM; in test [3], above 1000 nM. In test [1], the inhibition at 0.5 µM amounted to 84%.
With `COc1cc(NS(=O)(=O)C2CC2)cc(-c2cc(-c3ccc(N4CCNCC4)cc3)cnc2N)c1` [CSLP11, N-(3-(2-Amino-5-(4-(piperazin-1-yl)phenyl)pyridin-3-yl)-5-methoxyphenyl)cyclopropanesulfonamide], the figures for the IC50 in test [1] and in test [3] were above 10 nM and above 100 nM, respectively.
With `COc1cc(NS(=O)(=O)CC(C)C)cc(-c2cc(-c3ccc(N4CCNCC4)cc3)cnc2N)c1` [CSLP12, N-(3-(2-Amino-5-(4-(piperazin-1-yl)phenyl)pyridin-3-yl)-5-methoxyphenyl)-2-methylpropane-1-sulfonamide], the IC50 was above 10 nM in test [1], above 1 nM in test [2] and above 100 nM in test [3].
In the case of `CCS(=O)(=O)Nc1cc(OC)cc(-c2cc(-c3ccc(N4CCNCC4)cc3)cnc2Cl)c1` [CSLP14], the IC50 in test [1] was above 100 nM; in test [2], above 10 nM; in test [3], above 1000 nM. The inhibition at 0.5 µM in test [1] is 86%.
With `CCS(=O)(=O)Nc1cc(OC)cc(-c2cc(-c3ccc(N4CCNCC4)cc3)cnc2C)c1` [CSLP15, N-(3-Methoxy-5-(2-methyl-5-(4-(piperazin-1-yl)phenyl)pyridin-3-yl)phenyl)ethanesulfonamide], the half-maximal inhibitory concentration (IC50) in test [1] was above 100 nM; in test [2] it was above 10 nM; in test [3] it was above 1000 nM. Also, the inhibition at 0.5 µM in test [1] worked out at 73%.
With `COc1cc(NS(=O)(=O)C(C)C)cc(-c2cc(-c3ccc(N4CCNCC4)cc3)cnc2C)c1` [CSLP16, N-(3-Methoxy-5-(2-methyl-5-(4-(piperazin-1-yl)phenyl)pyridin-3-yl)phenyl)propane-2-sulfonamide], the 50% inhibitory concentration (IC50) in test [1] was above 10 nM; in test [2], above 100 nM; in test [3] it was above 100 nM. In test [1], the inhibition at 0.5 µM amounted to 85%.

Values taken from patent US11135209B2, “Compositions and methods for inhibiting protein kinases” (UNIVERSITY OF HOUSTON SYSTEM, priority 2017, dated 2021).
